Holding throughout (assay): inhibition of tumour cell growth, NCI panel, 48 h
The test system of assay [1] is IGROV1 ovarian.
Assay [2] relates to A498 renal.
For assay [3], the system named is MOLT-4 leukemia.
For assay [4], the system named is SNB-75 CNS.
For assay [5], the system named is SN12C renal.
The test system of assay [6] is RXF 393 renal.
Assay [7] deals with OVCAR-4 ovarian.
In assay [8] the test system is EKVX NSCLC.
Assay [9] relates to NCI-H460 lung.
Assay [10] relates to OVCAR-8 ovarian.
For assay [11], the system named is SK-MEL-28 melanoma.
Assay [12] has as its system MDA-MB-231 breast.
The subject of assay [13] is MALME-3M melanoma.
Assay [14] deals with HS 578T breast.
Assay [15] deals with OVCAR-5 ovarian.
Assay [16] deals with SK-OV-3 ovarian.
For assay [17], the system named is CCRF-CEM leukemia.
Assay [18] deals with HCT-15 colon.
The subject of assay [19] is UO-31 renal.

Structures are written as SMILES.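 Five compound concentrations were applied to cells in 96-well plates for 48 hours; endpoints were derived by simple linear interpolation of the resulting dose-response curve. TGI: total growth inhibition.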 Bounds are passed on as bounds.

`CCN(CC)C(=S)N=Nc1c(O)[nH]c2ccccc12`: the TGI in assay [1] worked out at 2.42 µM; in assay [2], 3.64 µM; in assay [3], 2.93 µM; in [4], 11.2 µM; in assay [5], 14.2 µM; in [6], 7.15 µM. Moreover, the TGI in [7] was 11.9 µM; in [8] it was 11.5 µM; in assay [9] it was 3.08 µM; in assay [10], 13 µM; in assay [11] it was > 100 µM; in assay [12], 8.02 µM. Besides, the TGI in [13] stood at 10.4 µM; in assay [14], 69.5 µM; in assay [15] it was 25.1 µM; in [16], 12.6 µM; in assay [17], 5.75 µM; in assay [18], 19.6 µM.
Regarding `Cc1ccc(S(=O)(=O)n2c3c(c4ccccc42)CCN2CCC(Br)C[C@@H]32)cc1` (stereo partly drawn), the TGI was 22.3 µM in assay [1]; 41 µM in assay [2]; 25.8 µM in [3]; 25.4 µM in assay [4]; 26.1 µM in [6]; 27 µM in assay [7]. For the same compound, the TGI in assay [8] was 38.1 µM; in assay [9], 30.1 µM; in [10], 25.1 µM; in [11], 24.5 µM; in assay [12] it was 31.3 µM; in [13] it was 26.1 µM. For the same compound, the TGI in [14] was 28.5 µM; in assay [15], 31.9 µM; in [16] it was 31.9 µM; in [17], 35.2 µM; in assay [18] it was 24.4 µM; in assay [19], 24.2 µM.
As for `O=C(NCCc1ccccc1)c1c(O)c2ccccc2[nH]c1=O`, the TGI in assay [1], in assay [2], in assay [3], in assay [4], in assay [5] and in [6] was > 100 µM in each case. The TGI in assay [7], in [8], in assay [9], in assay [10], in assay [11] and in [12] was > 100 µM throughout. In addition, the TGI in assay [13], in [14], in assay [15], in assay [17], in assay [18] and in [19] was > 100 µM throughout.
`CC(C)C/C=C/C1=NN(c2cccc(S(=O)(=O)O)c2)C2(C1)SCC(=O)N2c1nc2ccccc2s1` (stereo not drawn): the TGI is > 100 µM in assay [1]; 88.2 µM in assay [2]; > 100 µM in assay [3]; > 100 µM in assay [4]; > 100 µM in [5]; > 100 µM in assay [6]. The TGI in assay [7], in assay [8], in assay [9], in [10], in assay [11] and in assay [12] was > 100 µM in each case. Besides, the TGI in assay [13] was > 100 µM; in [14], > 100 µM; in [15], > 100 µM; in [17], 64.4 µM; in assay [18], > 100 µM; in [19], > 100 µM.
With `C/C(CC1SCCCS1)=C(/C)CC1SCCCS1`, the TGI in [1], in [2], in assay [3], in assay [4], in assay [5] and in [6] was > 100 µM each time. The TGI in assay [7], in [8], in assay [9], in assay [10], in assay [11] and in [12] was > 100 µM in each case. The TGI in [13], in [14], in assay [15], in [17], in assay [18] and in assay [19] was > 100 µM throughout.
Regarding `c1ccc2cc(CNCCOCCOCCNCc3ccc4ccccc4c3)ccc2c1`, the TGI in [1] came out at 3.22 µM; in assay [2], 3.73 µM; in assay [3], 4.49 µM; in [4], 4.12 µM; in [5], 4.18 µM; in [6] it was 3.52 µM. Besides, the TGI in assay [7] was found to be 5.78 µM; in assay [8] it was 6.13 µM; in [9], 3.24 µM; in assay [10] it was 3.77 µM; in [11], 4.35 µM; in assay [12], 3.11 µM. The TGI in assay [13] amounted to 3.9 µM; in [14], 3.74 µM; in assay [15], 4 µM; in assay [16], 8.62 µM; in assay [17], 4.46 µM; in assay [18], 3.46 µM.

The values above are taken from PubChem BioAssay (NCI).
